Data from patent US11419843B2, “Small molecule BCL-2 functional converters as cancer therapeutics” (Oregon State University, priority 2016, dated 2022).
Where two headings read alike, the source gives them in different places.

What was measured:
[1] = test system: MDA-MB-468 parental and derived paclitaxel or doxorubicin resistant cells; experiment: Viability of MDA-MB-468 parental and derived resistant cells; type: cell-based, human
Protocol: Percentage viability relative to vehicle treatment. Representative of three independent assays in triplicate.
Percentage viability relative to vehicle treatment.
Percentage viability relative to vehicle treatment. Representative of three independent assays conducted in triplicate.
Cells of interest were plated at 2000 cells per well in 96-well black tissue culture plate and allowed to adhere to the plate overnight. Viability assays were performed using 10% serum medium unless otherwise stated. Drugs were diluted in supplemented tissue culture medium and added at increasing concentrations, with DMSO as a vehicle control. Cells were then incubated for either 48 hour or 72 hours in presence of the compound, Promega Titer Glo was added to the wells at the assay end point according to manufacturer's protocol. Luminescence was measured using Tropix TR717 Microplate luminometer. Percentage of viable cells is relative to vehicle (100%). As a complementary viability assay, eBioscience Fixable Viability Dye eFluor 660(65-0864) was used to stain dead cells and analyzed using flow cytometry.

[2] = test system: MDA-MB-468 parental and paclitaxel resistant cells; experiment: Clonogenic survival of MDA-MB-468 parental and resistant cells; type: cell-based, human; conditions: treated continuously for 14 days
Description: FIG. 29B is the results of clonogenic survival assays in MDA-MB-468 parental and resistant cells treated continuously for 14 days with vehicle, or indicated concentration of paclitaxel. Colony forming ability (%) relative to vehicle treatment. Representative of three independent assays conducted in triplicate.

[3] = mice; cited from earlier work
[4] = humans; cited from earlier work
Bcl-2 loop domain = Bcl-2 loop domain (Homo sapiens, UniProt P10415); experiment: NMR titration of 15N-13C labeled Bcl-2 loop domain (HSQC chemical shift perturbation); conditions: for Kd: 0.2 mM Bcl-2 loop titrated with 0.2-5.4 mM MTX
Sequence of Bcl-2 loop domain (P10415 29-90 limits assumed): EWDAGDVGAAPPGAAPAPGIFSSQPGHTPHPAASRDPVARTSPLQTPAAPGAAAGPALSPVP

Chemical shift perturbations of Bcl-2 loop domain upon titration (Bcl-2 loop domain; 15N-1H HSQC) | Hill coefficient, His55 (Bcl-2 loop domain; Hill model fit) | Hill coefficient, His58 (Bcl-2 loop domain; Hill model fit) | Kd (Bcl-2 loop domain; Kd from chemical shift perturbation of His55, Hill model fit) | Kd (Bcl-2 loop domain; Kd from chemical shift perturbation of His58, Hill model fit) | SMILES | Viability of MDA-MB-468 doxorubicin resistant cells ([1]; 72 hour treatment) | Viability of MDA-MB-468 paclitaxel resistant vs parental cells ([1]; 72 hours) | Colony forming ability of MDA-MB-468 paclitaxel resistant cells [2] | half-life [3] | half-life [4]
 |  |  |  |  | CCOc1ccccc1NC(=O)c1cc(Cl)ccc1NC(=O)c1ccc(OC)cc1 [BFC1108, 5-chloro-N-(2-ethoxyphenyl)-2-[(4-methoxybenzoyl)amino]-benzamide] | reduced viability of doxorubicin resistant cells | preferentially killed by BFC1108 in a dose dependent manner | reduced colony forming ability of the paclitaxel resistant cells |  | 
residues 55-60 | 1.2 | 1.0 | 5.1 mM | 11.4 mM | CN(Cc1cnc2nc(N)nc(N)c2n1)c1ccc(C(=O)N[C@@H](CCC(=O)O)C(=O)O)cc1 [MTX, (2S)-2-[[4-[(2,4 diaminopteridin-6-yl)methylmethylamino]benzoyl]amino] pentanedioc acid] |  |  |  | 0.5 h | 7 to 10 h
